US7125844B2, “Dab9 derivatives of lipopeptide antibiotics and methods of making and using the same” (priority 2002, dated 2006)

System: methicillin sensitive Staphylococcus aureus (MSSA; Smith strain)
Assay: Mouse protection model: mice infected intraperitoneally with MSSA, dosed subcutaneously
Assay type: in vivo
Conditions: for Number Dead: 10 mice
Procedure: An overnight culture of methicillin sensitive Staphylococcus aureus (“MSSA”; Smith strain) grown to stationary phase in brain heart infusion broth (BHI) was diluted 1000-fold and maintained at 37° C. in a shaking incubator. Approximately two hours later the culture was centrifuged and the pellet was washed with sterile phosphate-buffered saline (“PBS”). The washed pellet was then reconstituted in Mueller-Hinton Broth (“MHB”) to achieve the desired density of bacteria. A portion of the inoculum was plated on blood agar plates to determine colony-forming units (CFU) per milliliter.
Compound IB-1272 was formulated immediately before dosing in aqueous vehicle containing 5% dextrose. Compound IB-756 (Aspartocin) was formulated in PBS or 5% dextrose and used as a positive control.
Immunocompetent Swiss Webster Mice from Simonsen Laboratories, Gilroy, Calif., received via intraperitoneal injection a single inoculum (0.5 ml) containing an estimated 4.0×10^7 CFU of MSSA Smith strain. The day of inoculation was designated study day 0. Immediately after infection, mice were treated subcutaneously with a single dose of vehicle alone, IB-1272 (2, 4, or 8 mg/kg), IB-756 (2.5 or 5 mg/kg in PBS), or IB-756 (2.5 or 5 mg/kg in 5% dextrose).

[1] = 2.0 mg/kg s.c. single dose (5% dextrose vehicle)
[2] = 4 mg/kg s.c. single dose (5% dextrose vehicle)
[3] = 8 mg/kg s.c. single dose (5% dextrose vehicle)
[4] = Table 1, no unit or model given

SMILES: CC(C)CCCCCCCC/C=C\CC(=O)N[C@@H](CC(=O)O)C(=O)N[C@@H]1C(=O)N2CCCC[C@@H]2C(=O)N[C@@H]([C@H](C)C(=O)O)C(=O)N[C@@H](CC(=O)O)C(=O)NCC(=O)N[C@@H](CC(=O)O)C(=O)NCC(=O)N[C@H]([C@@H](C)NC(=O)CN)C(=O)N[C@@H](C(C)C)C(=O)N2CCC[C@H]2C(=O)N[C@@H]1C [IB-1272, NatC15-aspartocin(Dab^9-N-glycyl)]
- Percent Mortality [1]: 50%
- Percent Survival [1]: 50%
- Number Dead [1]: 5
- Percent Mortality [2]: 0%
- Percent Survival [2]: 100%
- Number Dead [2]: 0
- Percent Mortality [3]: 0%
- Percent Survival [3]: 100%
- Number Dead [3]: 0
- ED50 [4]: 1.8 mg/kg
- ED50 (subcutaneously administered, immunocompetent mice challenged intraperitoneally with MSSA Smith strain): < 2.0 mg/kg

SMILES: CC(C)CCCCCCCC/C=C\CC(=O)N[C@@H](CC(=O)O)C(=O)N[C@@H]1C(=O)N2CCCC[C@@H]2C(=O)N[C@@H]([C@H](C)C(=O)O)C(=O)N[C@@H](CC(=O)O)C(=O)NCC(=O)N[C@@H](CC(=O)O)C(=O)NCC(=O)N[C@H]([C@@H](C)NC(=O)[C@H](C)N)C(=O)N[C@@H](C(C)C)C(=O)N2CCC[C@H]2C(=O)N[C@@H]1C [IB-1275, NatC15-aspartocin(Dab^9-N-L-alanyl)]
- ED50 [4]: 15.7 mg/kg

SMILES: CC(C)CCCCCCCC/C=C\CC(=O)N[C@@H](CC(=O)O)C(=O)N[C@@H]1C(=O)N2CCCC[C@@H]2C(=O)N[C@@H]([C@H](C)C(=O)O)C(=O)N[C@@H](CC(=O)O)C(=O)NCC(=O)N[C@@H](CC(=O)O)C(=O)NCC(=O)N[C@H]([C@@H](C)NC(=O)[C@@H](C)N)C(=O)N[C@@H](C(C)C)C(=O)N2CCC[C@H]2C(=O)N[C@@H]1C [IB-1279, NatC15-aspartocin(Dab^9-N-D-alanyl)]
- ED50 [4]: 6 mg/kg

SMILES: CC(C)CCCCCCCC/C=C\CC(=O)N[C@@H](CC(=O)O)C(=O)N[C@@H]1C(=O)N2CCCC[C@@H]2C(=O)N[C@@H]([C@H](C)C(=O)O)C(=O)N[C@@H](CC(=O)O)C(=O)NCC(=O)N[C@@H](CC(=O)O)C(=O)NCC(=O)N[C@H]([C@@H](C)NC(=O)[C@@H](N)CO)C(=O)N[C@@H](C(C)C)C(=O)N2CCC[C@H]2C(=O)N[C@@H]1C [IB-1281, NatC15-aspartocin(Dab^9-N-L-seryl)]
- ED50 [4]: 14.7 mg/kg
